We go through 44 compounds from US12065445B2, “CDK2 inhibitors and methods of using the same” (Cedilla Therapeutics, Inc., priority 2021, dated 2024).

In the test the test system is Kuramochi cells labeled with mApple-H2B. The test can be described thus: IncuCyte Cell Proliferation Assay. The following applies: 72 h. The format is cell-based. As to the method: IncuCyte® assay was used to measure the effect of disclosed compounds on cell proliferation. Fluorescent microscopy images of cells were taken immediately after compound treatment and 72 hours later. Image analysis software was used to obtain cell counts as a function of compound concentration. Kuramochi cells labeled with mApple-H2B were seeded on 384-well assay-ready plates. Plates were placed in an IncuCyte® (Sartorius) and scanned at 0 and 72 hours. IncuCyte® software was used to count the number of fluorescent nuclei in each well. The fold change in cell count from 0 to 72 hours in wells treated with increasing compounds concentrations (10 pts, ½ log dilution, 20 μM top concentration) was normalized to DMSO control wells. The normalized cell counts were fit with dose response curves and a […] was calculated.
Take `C[C@@H](OC(C)(C)C1CCCCC1)[C@H](NC(=O)[C@@H]1CN(C(=O)c2cncs2)CC12CN(C(=O)[C@H]1CC1(C)C)C2)C(=O)N1CCCCC1` [I-395]: the half-inhibitory concentration (IC50) was 0.5 to 5 µM.
Consider `CNC(=O)[C@@H](NC(=O)[C@@H]1CN(C(=O)c2cnn(Cc3ccccc3)c2)CC12CN(C(=O)[C@H]1CC1(C)C)C2)C1(OCC2CCCCC2)CC1` [I-396], for which the concentration for half-maximal inhibition (IC50) was 0.5 to 5 µM.
The result for `C[C@@H](OCC1CCC(F)(F)CC1)[C@H](NC(=O)[C@@H]1CN(C(=O)c2cncs2)CC12CN(C(=O)[C@H]1CC1(C)C)C2)C(=O)N1CCC(CO)CC1` [I-397] reads 0.5 to 5 µM.
Turning to `C[C@@H](OCc1ccc(Cl)cc1)[C@@H](CO)NC(=O)[C@@H]1CN(C(=O)c2cncs2)CC12CN(C(=O)[C@H]1CC1(C)C)C2` [I-404], the IC50 is more than 20 µM.
As for `Cc1ccc(CNC(=O)[C@@H]2CN(C(=O)c3cnc(Cc4ccccc4)s3)CC23CN(C(=O)[C@H]2CC2(C)C)C3)nn1` [I-405], the figure is more than 20 µM; as for `COC[C@H]1CCCN(C(=O)[C@@H](NC(=O)[C@@H]2CN(C(=O)c3cncs3)CC23CN(C(=O)[C@H]2CC2(C)C)C3)[C@@H](C)OC[C@H]2CC[C@@H](OC)CC2)C1` [I-408], 0.5 to 5 µM.
For `C[C@@H](OCc1ccccc1)[C@H](NC(=O)[C@@H]1CN(C(=O)c2cnn(Cc3ccccc3)c2)CC12CN(C(=O)[C@H]1CC1(C)C)C2)C(=O)N(C)C` [I-409], the IC50 was 0.5 to 5 µM.
As for `CNC(=O)C(NC(=O)[C@@H]1CN(C(=O)c2cncs2)CC12CN(C(=O)C(C)(C)C1CC1)C2)c1cccc(C2CCCCC2)n1` (stereo partly drawn) [I-410, (8S)—N-(1-(6-cyclohexylpyridin-2-yl)-2-(methylamino)-2-oxoethyl)-2-(2-cyclopropyl-2-methylpropanoyl)-6-(thiazole-5-carbonyl)-2,6-diazaspiro[3.4]octane-8-carboxamide], the figure is 0.5 to 5 µM; as for `CNC(=O)C(NC(=O)[C@@H]1CN(C(=O)c2cncs2)CC12CN(C(=O)[C@H]1CC1(C)C)C2)c1cccc(C2CCC(F)(F)CC2)n1` (some centres unmarked) [I-411], more than 20 µM.
Compound `C[C@@H](OCC1CC(F)(F)C1)[C@@H](CO)NC(=O)[C@@H]1CN(C(=O)c2cncs2)CC12CN(C(=O)[C@H]1CC1(C)C)C2` [I-412] returned an IC50 of more than 20 µM.
As for `CNC(=O)[C@@H](NC(=O)[C@@H]1CN(C(=O)c2cnn(Cc3ccccc3)c2)CC12CN(C(=O)[C@H]1CC1(C)C)C2)[C@@H](C)OC[C@H]1CC[C@H](O)CC1` [I-413], the IC50 is more than 20 µM.
Consider `CC1(C)C[C@@H]1C(=O)N1CC2(CN(C(=O)c3cncs3)C[C@H]2C(=O)NCc2cccc(C3CCCCC3)n2)C1` [I-414], for which the 50% inhibitory concentration (IC50) was 0.5 to 5 µM.
On to `C[C@@H](OCc1ccccc1)[C@H](NC(=O)[C@@H]1CN(C(=O)c2cncs2)CC12CN(C(=O)[C@H]1CC1(C)C)C2)C(=O)N(C)C` [I-416], for which the 50% inhibitory concentration (IC50) is 5 to 20 µM.
In turn, `Cc1ccc(CNC(=O)[C@@H]2CN(C(=O)c3cnn(Cc4ccccn4)c3)CC23CN(C(=O)[C@H]2CC2(C)C)C3)nn1` [I-417] yielded a concentration for half-maximal inhibition (IC50) of more than 20 µM.
On to `Cc1ccc(CNC(=O)[C@@H]2CN(C(=O)c3cnn(Cc4ccncc4)c3)CC23CN(C(=O)[C@H]2CC2(C)C)C3)nn1` [I-418], for which the IC50 is more than 20 µM.
`CC1(C)C[C@@H]1C(=O)N1CC2(CN(C(=O)c3cncs3)C[C@H]2C(=O)NC(CO)c2cccc(C3CCC(F)(F)CC3)n2)C1` (some centres unmarked) [I-419] displayed an IC50 of more than 20 µM.
Compound `CNC(=O)C(NC(=O)[C@@H]1CN(C(=O)c2cncs2)CC12CN(C(=O)[C@H]1CC1(C)C)C2)c1ccc(C)nn1` (some centres unmarked) [I-420] registered a half-inhibitory concentration (IC50) of more than 20 µM.
With `CNC(=O)C(NC(=O)[C@@H]1CN(C(=O)c2cnn(Cc3ccccc3)c2)CC12CN(C(=O)[C@H]1CC1(C)C)C2)c1ccc(C)nn1` (some centres unmarked) [I-421], the 50% inhibitory concentration (IC50) is more than 20 µM.
Take `CC(C)(O)C(NC(=O)[C@@H]1CN(C(=O)c2cncs2)CC12CN(C(=O)[C@H]1CC1(C)C)C2)c1cccc(C2CCOCC2)n1` (some centres unmarked) [I-423]: the 50% inhibitory concentration (IC50) was more than 20 µM.
With `COC[C@H]1CCCN(C(=O)[C@@H](NC(=O)[C@@H]2CN(C(=O)c3cncs3)CC23CN(C(=O)C(C)(C)C2CC2)C3)[C@@H](C)OC[C@H]2CC[C@H](O)CC2)C1` [I-431], the IC50 is more than 20 µM.
In turn, `COC[C@H]1CCCN(C(=O)[C@@H](NC(=O)[C@@H]2CN(C(=O)c3cncs3)CC23CN(C(=O)[C@H]2CC2(C)C)C3)[C@@H](C)OC[C@H]2CC[C@H](N)CC2)C1` [I-433] registered an IC50 of more than 20 µM.
For the compound `COC[C@H]1CCCN(C(=O)[C@@H](NC(=O)[C@@H]2CN(C(=O)c3cncs3)CC23CN(C(=O)[C@H]2CC2(C)C)C3)[C@@H](C)OC[C@H]2CC[C@H](NC(C)=O)CC2)C1` [I-434], the IC50 is more than 20 µM.
On to `COC[C@H]1CCCN(C(=O)[C@@H](NC(=O)[C@@H]2CN(C(=O)c3cncs3)CC23CN(C(=O)[C@H]2CC2(C)C)C3)[C@@H](C)OC[C@H]2CC[C@H](OC(F)(F)F)CC2)C1` [I-435], for which the IC50 was 0.5 to 5 µM.
Regarding `CC(C)(O)C(NC(=O)[C@@H]1CN(C(=O)c2cnco2)CC12CN(C(=O)[C@H]1CC1(C)C)C2)c1cccc(C2CCOCC2)n1` (some centres unmarked) [I-436], the concentration for half-maximal inhibition (IC50) is more than 20 µM.
`Cc1nc(C)c(C(=O)N2C[C@@H](C(=O)NC(c3cccc(C4CCOCC4)n3)C(C)(C)O)C3(C2)CN(C(=O)[C@H]2CC2(C)C)C3)s1` (some centres unmarked) [I-437] had a half-maximal inhibitory concentration (IC50) of more than 20 µM.
The result for `C[C@@H](OCC1CCCCC1)[C@H](NC(=O)[C@@H]1CN(C(=O)c2cnn(Cc3ccccc3)c2)CC12CN(C(=O)[C@H]1CC1(C)C)C2)C(=O)N1CCC(c2cnc[nH]2)CC1` [I-438] reads 0.5 to 5 µM.
Compound `C[C@@H](OCC1CCCCC1)[C@H](NC(=O)[C@@H]1CN(C(=O)c2cnn(Cc3ccccc3)c2)CC12CN(C(=O)[C@H]1CC1(C)C)C2)C(=O)N1CCC(n2cccn2)CC1` [I-439] yielded an IC50 not above 0.5 µM.
Compound `C[C@@H](OCC1CCOCC1)[C@H](NC(=O)[C@@H]1CN(C(=O)c2cncs2)CC12CN(C(=O)[C@H]1CC1(C)C)C2)C(=O)N1CCC(n2ccnc2)CC1` [I-440] returned an IC50 of more than 20 µM.
Compound `C[C@@H](OCC1CCCCC1)[C@H](NC(=O)[C@@H]1CN(C(=O)c2cnn(Cc3ccccc3)c2)CC12CN(C(=O)[C@H]1CC1(C)C)C2)C(=O)N1CCC(c2cc[nH]n2)CC1` [I-443] registered a concentration for half-maximal inhibition (IC50) not above 0.5 µM.
Compound `C[C@@H](OCC1CCC2(CCC2)CC1)[C@H](NC(=O)[C@@H]1CN(C(=O)c2cnn(Cc3ccccc3)c2)CC12CN(C(=O)[C@H]1CC1(C)C)C2)C(=O)N1CCC(c2cnc[nH]2)CC1` [I-444] showed an IC50 not above 0.5 µM.
As for `C[C@@H](OCC1CCCCC1)[C@H](NC(=O)[C@@H]1CN(C(=O)c2cnn(Cc3ccccc3)c2)CC12CN(C(=O)[C@H]1CC1(C)C)C2)C(=O)N1CCC(c2nccs2)CC1` [I-445], the IC50 was not above 0.5 µM.
For the compound `C[C@@H](OCC1CCCCC1)[C@H](NC(=O)[C@@H]1CN(C(=O)c2cnn(Cc3ccccc3)c2)CC12CN(C(=O)[C@H]1CC1(C)C)C2)C(=O)N1CCC(c2ncc[nH]2)CC1` [I-446], the 50% inhibitory concentration (IC50) was 0.5 to 5 µM.
In turn, `C[C@@H](OCC12CCC(CC1)OC2)[C@H](NC(=O)[C@@H]1CN(C(=O)c2cnco2)CC12CN(C(=O)C(C)(C)C1CC1)C2)C(C)(C)O` [I-448] displayed an IC50 of more than 20 µM.
On to `C[C@@H](OCC1CCCCC1)[C@H](NC(=O)[C@@H]1CN(C(=O)c2cnn(Cc3ccccc3)c2)CC12CN(C(=O)[C@H]1CC1(C)C)C2)C(=O)N1CCC(c2nnco2)CC1` [I-449], for which the concentration for half-maximal inhibition (IC50) was not above 0.5 µM.
In the case of `C[C@@H](OCC12CCC(CC1)OC2)[C@H](NC(=O)[C@@H]1CN(C(=O)c2cnco2)CC12CN(C(=O)[C@H]1CC1(C)C)C2)C(C)(C)O` [I-450], the 50% inhibitory concentration (IC50) was more than 20 µM.
Compound `COC1CCN(C(=O)[C@@H](NC(=O)[C@@H]2CN(C(=O)c3sc(C)nc3C)CC23CN(C(=O)[C@H]2CC2(C)C)C3)[C@@H](C)OCC23CCC(CC2)OC3)CC1` [I-451] showed a concentration for half-maximal inhibition (IC50) of 5 to 20 µM.
As for `C[C@@H](OCC12CCC(CC1)OC2)[C@H](NC(=O)[C@@H]1CN(C(=O)c2cncs2)CC12CN(C(=O)[C@H]1CC1(C)C)C2)C(=O)N1CCC(C)(C)CC1` [I-452], the figure is not above 0.5 µM; as for `C[C@@H](OCC12CCC(CC1)OC2)[C@H](NC(=O)[C@@H]1CN(C(=O)c2cncs2)CC12CN(C(=O)[C@H]1CC1(C)C)C2)C(=O)N1CCCC2(COC2)C1` [I-453], 5 to 20 µM.
In the case of `C[C@@H](OCC12CCC(CC1)OC2)[C@H](NC(=O)[C@@H]1CN(C(=O)c2cncs2)CC12CN(C(=O)[C@H]1CC1(C)C)C2)C(=O)N1CCC(C(F)(F)F)CC1` [I-454, (S)—N-((2S,3R)-3-((2-oxabicyclo[2.2.2]octan-4-yl)methoxy)-1-oxo-1-(4-(trifluoromethyl)piperidin-1-yl)butan-2-yl)-2-((S)-2,2-dimethylcyclopropane-1-carbonyl)-6-(thiazole-5-carbonyl)-2,6-diazaspiro[3.4]octane-8-carboxamide], the concentration for half-maximal inhibition (IC50) lay within 0.5 to 5 µM.
For `Cc1nc(C)c(C(=O)N2C[C@@H](C(=O)N[C@H](C(=O)N3CCC(OC(F)(F)F)CC3)[C@@H](C)OCC34CCC(CC3)OC4)C3(C2)CN(C(=O)[C@H]2CC2(C)C)C3)s1` [I-455], the half-maximal inhibitory concentration (IC50) fell in the range of 0.5 to 5 µM.
The compound `Cc1nc(C)c(C(=O)N2C[C@@H](C(=O)N[C@H](C(=O)N3CCC(C(F)(F)F)CC3)[C@@H](C)OCC34CCC(CC3)OC4)C3(C2)CN(C(=O)[C@H]2CC2(C)C)C3)s1` [I-456] showed a half-inhibitory concentration (IC50) of 0.5 to 5 µM.
Turning to `C[C@@H](OCC12CCC(CC1)OC2)[C@H](NC(=O)[C@@H]1CN(C(=O)c2cncs2)CC12CN(C(=O)[C@H]1CC1(C)C)C2)C(=O)N1CCC(OC(F)(F)F)CC1` [I-457], the half-inhibitory concentration (IC50) was in the range of 0.5 to 5 µM.
Regarding `C[C@@H](OCC12CCC(CC1)OC2)[C@H](NC(=O)[C@@H]1CN(C(=O)c2cncs2)CC12CN(C(=O)[C@H]1CC1(C)C)C2)C(=O)N1CCC2(CC1)CC2` [I-458], the IC50 was in the range of 0.5 to 5 µM.
The compound `[2H]C([2H])([2H])OC[C@H]1CCCN(C(=O)[C@@H](NC(=O)[C@@H]2CN(C(=O)c3cncs3)CC23CN(C(=O)C(C)(C)C2CC2)C3)[C@@H](C)OCC23CCC(CC2)OC3)C1` [I-459] showed an IC50 of 5 to 20 µM.
